Test results taken from patent publication US7141601B2, “Dendrite elongation inhibitor for melanocyte and skin preparation for external use containing the same” (Pola Chemiocal Industries Inc., priority 2002, dated 2006).

Test system: Normal human melanocyte
Test: inhibitory action on the elongation of dendrites using human melanocytes
Type: cell-based
Text: According to a method shown below, inhibitory action on the elongation of dendrites was examined using human melanocytes. (Reagent, etc.) Cells, basal media, and amplification additives were purchased from KURABO INDUSTRIES LTD. • (Cell) Normal human melanocyte • (Medium) Basal medium (Medium 154S) supplemented with reagents described below • (Reagent) Amplification additive: bovine pituitary extract (BPE) (final concentration of 0.4% v/v in the medium), fetal bovine serum • (FBS) (final concentration of 0.5% v/v in the medium), human recombinant basic fibroblast growth factor (rFGF-B) (final concentration of 3 ng/ml in the medium), hydrocortisone (final concentration of 0.18 μg/ml in the medium), insulin (final concentration 5 μg/ml in the medium), transferrin (final concentration of 5 μg/ml in the medium), phorbol 12-myristate 13-acetate (PMA) (final concentration of 10 ng/ml in the medium), heparin (final concentration of 3 μg/ml in the medium), and PSA solution (mixture solution of penicillin concentration of 50,000 Unit/ml, streptomycin concentration of 50 μg/ml, and amphotericin B concentration of 12.5 μg/ml; 1-ml addition with respect to 500 ml of the medium) (Method)
Compound 1 (methylophiopogonanone B) obtained in the above-described example of production was diluted in a basal medium so that the concentration was brought up to 100 μg/ml, to make a sample solution. […]

COc1ccc(CC2COc3c(C)c(O)c(C)c(O)c3C2=O)cc1 (centres unmarked) [Compound 1, 2,3-dihydro-3-[(4-methoxyphenyl)methyl]-5,7-dihydroxy-6,8-dimethyl-4H-1-benzopyran-4-on]
Length of dendrite (50 μl of 100 μg/ml sample solution added to 200 μl medium, observed 24 hours after addition, growth factors in medium): 22 ± 6 μm
inhibition against the elongation of dendrites (in words) (vs control with basal medium only, 24 hours after addition): elongation is inhibited
